Measurements taken from patent publication US10160724B2, “Tetrahydropyridine derivatives and their use as antibacterial agents” (Dong-A St Co., Ltd., priority 2016, dated 2018).
In brackets after ≈: the same amount, converted by molar mass.

How the values were obtained:
Assay in all cases: In vitro antibiotic activity, agar dilution method (Mueller-Hinton agar, NCCLS)
Type in all cases: cell-based
E. coli ATCC 25922 = conditions: Escherichia coli, ATCC25922; agar dilution, Mueller-Hinton agar; read-out: MIC for E. coli ATCC 25922
Description: (§1) To measure the antibiotic activity of the compounds prepared by Examples, antibiotic activity test in vitro was performed by agar dilution method using Mueller-Hinton agar according to the NCCLS (National Committee for Clinical Laboratory Standards. 2000. Methods for dilution antimicrobial susceptibility tests for bacteria that grow aerobiocally. Approved standard, NCCLS document M7-M5, 5th ed, vol 20, no 2. National Committee for Clinical Laboratory Standards, Wayne, Pa.). The test strain was Escherichia coli (ATCC 25922), Klebsiella pneumonia (ATCC 29665) and Pseudomonas aeriginosa (PAO1).

K. pneumoniae ATCC 29665 = conditions: Klebsiella pneumoniae, ATCC29665; agar dilution, Mueller-Hinton agar; read-out: MIC for K. pneumoniae ATCC 29665
Description: as §1

P. aeruginosa PAO1 = conditions: Pseudomonas aeruginosa, PAO1; agar dilution, Mueller-Hinton agar; read-out: MIC for P. aeruginosa PAO1
Description: as §1

Structure (SMILES) | MIC (E. coli ATCC 25922) [µg/mL] | MIC (K. pneumoniae ATCC 29665) [µg/mL] | MIC (P. aeruginosa PAO1) [µg/mL]
CC(CCN1CC=C(C#Cc2ccncc2)CC1)(C(=O)NO)S(C)(=O)=O (stereo not drawn) [Example 52, N-hydroxy-2-methyl-2-(methylsulfonyl)-4-(4-(pyridin-4-ylethynyl)-3,6-dihydropyridin-1(2H)-yl)butanamide] | 8 to 16 (≈ 21.2 to 42.4 µM) | > 16 | > 16
CC(CCN1CC=C(C#Cc2ccc(Br)cc2)CC1)(C(=O)NO)S(C)(=O)=O (stereo not drawn) [Example 53, 4-(4-((4-bromophenyl)ethynyl)-3,6-dihydropyridin-1(2H)-yl)-N-hydroxy-2-methyl-2-(methylsulfonyl)butanamide] | 1 to 8 (≈ 2.2 to 17.6 µM) | 1 to 8 (≈ 2.2 to 17.6 µM) | > 16
CC(CCN1CC=C(C#CC#CCCCO)CC1)(C(=O)NO)S(C)(=O)=O (stereo not drawn) [Example 54, N-hydroxy-4-(4-(7-hydroxyhepta-1,3-diyn-1-yl)-3,6-dihydropyridin-1(2H)-yl)-2-methyl-2-(methylsulfonyl)butanamide] | 8 to 16 (≈ 20.9 to 41.8 µM) | > 16 | > 16
CC(CCN1CC=C(c2ccc(-c3ccncc3)cc2)CC1)(C(=O)NO)S(C)(=O)=O (stereo not drawn) [Example 55, N-hydroxy-2-methyl-2-(methylsulfonyl)-4-(4-(4-(pyridin-4-yl)phenyl)-3,6-dihydropyridin-1(2H)-yl)butanamide] | 1 to 8 (≈ 2.33 to 18.6 µM) | 1 to 8 (≈ 2.33 to 18.6 µM) | 1 to 8 (≈ 2.33 to 18.6 µM)
CC(CCN1CC=C(c2ccc(-c3ccccc3)cc2)CC1)(C(=O)NO)S(C)(=O)=O (stereo not drawn) [Example 56, 4-(4-([1,1′-biphenyl]-4-yl)-3,6-dihydropyridin-1(2H)-yl)-N-hydroxy-2-methyl-2-(methylsulfonyl)butanamide] | < 1 | < 1 | 8 to 16 (≈ 18.7 to 37.3 µM)
CC(CCN1CC=C(c2ccc(-c3ccc(Cl)cc3)cc2)CC1)(C(=O)NO)S(C)(=O)=O (stereo not drawn) [Example 57, 4-(4-(4′-chloro-[1,1′-biphenyl]-4-yl)-3,6-dihydropyridin-1(2H)-yl)-N-hydroxy-2-methyl-2-(methylsulfonyl)butanamide] | 1 to 8 (≈ 2.16 to 17.3 µM) | > 16 | > 16
CC(CCN1CC=C(c2ccc(-c3ccc(F)cc3)cc2)CC1)(C(=O)NO)S(C)(=O)=O (stereo not drawn) [Example 58, 4-(4-(4′-fluoro-[1,1′-biphenyl]-4-yl)-3,6-dihydropyridin-1(2H)-yl)-N-hydroxy-2-methyl-2-(methylsulfonyl)butanamide] | < 1 | 1 to 8 (≈ 2.24 to 17.9 µM) | > 16
CC(CCN1CC=C(c2ccc(-c3ccc(O)cc3)cc2)CC1)(C(=O)NO)S(C)(=O)=O (stereo not drawn) [Example 59, N-hydroxy-4-(4-(4′-hydroxy-[1,1′-biphenyl]-4-yl)-3,6-dihydropyridin-1(2H)-yl)-2-methyl-2-(methylsulfonyl)butanamide] | < 1 | 8 to 16 (≈ 18 to 36 µM) | 8 to 16 (≈ 18 to 36 µM)
COc1ccc(-c2ccc(C3=CCN(CCC(C)(C(=O)NO)S(C)(=O)=O)CC3)cc2)cc1F (stereo not drawn) [Example 60, 4-(4-(3′-fluoro-4′-methoxy-[1,1′-biphenyl]-4-yl)-3,6-dihydropyridin-1(2H)-yl)-N-hydroxy-2-methyl-2-(methylsulfonyl)butanamide] | < 1 | 8 to 16 (≈ 16.8 to 33.6 µM) | > 16
CC(CCN1CC=C(c2ccc(-c3cccnc3)cc2)CC1)(C(=O)NO)S(C)(=O)=O (stereo not drawn) [Example 61, N-hydroxy-2-methyl-2-(methylsulfonyl)-4-(4-(4-(pyridin-3-yl)phenyl)-3,6-dihydropyridin-1(2H)-yl)butanamide] | 1 to 8 (≈ 2.33 to 18.6 µM) | > 16 | 1 to 8 (≈ 2.33 to 18.6 µM)
CC(CCN1CC=C(c2ccc(-c3ccc(F)nc3)cc2)CC1)(C(=O)NO)S(C)(=O)=O (stereo not drawn) [Example 62, 4-(4-(4-(6-fluoropyridin-3-yl)phenyl)-3,6-dihydropyridin-1(2H)-yl)-N-hydroxy-2-methyl-2-(methylsulfonyl)butanamide] | < 1 | 1 to 8 (≈ 2.23 to 17.9 µM) | 1 to 8 (≈ 2.23 to 17.9 µM)
CC(CCN1CC=C(c2ccc(-c3ccoc3)cc2)CC1)(C(=O)NO)S(C)(=O)=O (stereo not drawn) [Example 63, 4-(4-(4-(furan-3-yl)phenyl)-3,6-dihydropyridin-1(2H)-yl)-N-hydroxy-2-methyl-2-(methylsulfonyl)butanamide] | < 1 | < 1 | 8 to 16 (≈ 19.1 to 38.2 µM)
CC(CCN1CC=C(c2ccc(-c3ccc(S(C)(=O)=O)cc3)cc2)CC1)(C(=O)NO)S(C)(=O)=O (stereo not drawn) [Example 64, N-hydroxy-2-methyl-2-(methylsulfonyl)-4-(4-(4′-(methylsulfonyl)-[1,1′-biphenyl]-4-yl)-3,6-dihydropyridin-1(2H)-yl)butanamide] | < 1 | 1 to 8 (≈ 1.97 to 15.8 µM) | 1 to 8 (≈ 1.97 to 15.8 µM)
CC(CCN1CC=C(c2ccc(-c3ccc(CO)cc3)cc2)CC1)(C(=O)NO)S(C)(=O)=O (stereo not drawn) [Example 65, N-hydroxy-4-(4-(4′-(hydroxymethyl)-[1,1′-biphenyl]-4-yl)-3,6-dihydropyridin-1(2H)-yl)-2-methyl-2-(methylsulfonyl)butanamide] | < 1 | 8 to 16 (≈ 17.4 to 34.9 µM) | > 16
CC(CCN1CC=C(c2ccc(-c3ccc(C#N)cc3)cc2)CC1)(C(=O)NO)S(C)(=O)=O (stereo not drawn) [Example 66, 4-(4-(4′-cyano-[1,1′-biphenyl]-4-yl)-3,6-dihydropyridin-1(2H)-yl)-N-hydroxy-2-methyl-2-(methylsulfonyl)butanamide] | < 1 | 1 to 8 (≈ 2.2 to 17.6 µM) | > 16
CCCCCc1ccc(-c2ccc(C3=CCN(CCC(C)(C(=O)NO)S(C)(=O)=O)CC3)cc2)cc1 (stereo not drawn) [Example 67, N-hydroxy-2-methyl-2-(methylsulfonyl)-4-(4-(4′-pentyl-[1,1′-biphenyl]-4-yl)-3,6-dihydropyridin-1(2H)-yl)butanamide] | 8 to 16 (≈ 16 to 32.1 µM) | > 16 | > 16
CC(CCN1CC=C(c2ccc(-c3ccc(S(=O)(=O)N4CCC4)cc3)cc2)CC1)(C(=O)NO)S(C)(=O)=O (stereo not drawn) [Example 68, 4-(4-(4′-(azetidin-1-ylsulfonyl)-[1,1′-biphenyl]-4-yl)-3,6-dihydropyridin-1(2H)-yl)-N-hydroxy-2-methyl-2-(methylsulfonyl)butanamide] | < 1 | 1 to 8 (≈ 1.83 to 14.6 µM) | 1 to 8 (≈ 1.83 to 14.6 µM)
CC(CCN1CC=C(c2ccc(-c3ccc(OS(C)(=O)=O)cc3)cc2)CC1)(C(=O)NO)S(C)(=O)=O (stereo not drawn) [Example 69, 4′-(1-(4-(hydroxyamino)-3-methyl-3-(methylsulfonyl)-4-oxobutyl)-1,2,3,6-tetrahydropyridin-4-yl)-[1,1′-biphenyl]-4-yl methanesulfonate] | < 1 | < 1 | 8 to 16
CC(CCN1CC=C(c2ccc(-c3ccsc3)cc2)CC1)(C(=O)NO)S(C)(=O)=O (stereo not drawn) [Example 70, N-hydroxy-2-methyl-2-(methylsulfonyl)-4-(4-(4-(thiophen-3-yl)phenyl)-3,6-dihydropyridin-1(2H)-yl)butanamide] | < 1 | < 1 | > 16
COc1ccsc1-c1ccc(C2=CCN(CCC(C)(C(=O)NO)S(C)(=O)=O)CC2)cc1.Cl (stereo not drawn) [Example 71, N-hydroxy-4-(4-(4-(3-methoxythiophen-2-yl)phenyl)-3,6-dihydropyridin-1(2H)-yl)-2-methyl-2-(methylsulfonyl)butanamide hydrochloride] | < 1 | < 1 | > 16
Cc1csc(-c2ccc(C3=CCN(CCC(C)(C(=O)NO)S(C)(=O)=O)CC3)cc2)c1.Cl (stereo not drawn) [Example 72, N-hydroxy-2-methyl-2-(methylsulfonyl)-4-(4-(4-(4-methylthiophen-2-yl)phenyl)-3,6-dihydropyridin-1(2H)-yl)butanamide hydrochloride] | < 1 | < 1 | > 16
CCS(=O)(=O)c1ccc(-c2ccc(C3=CCN(CCC(C)(C(=O)NO)S(C)(=O)=O)CC3)cc2)cc1.Cl (stereo not drawn) [Example 73, 4-(4-(4′-(ethylsulfonyl)-[1,1′-biphenyl]-4-yl)-3,6-dihydropyridin-1(2H)-yl)-N-hydroxy-2-methyl-2-(methylsulfonyl)butanamide hydrochloride] | < 1 | 1 to 8 | 1 to 8
CC(CCN1CC=C(c2ccc(-c3ccc(CN4CCOCC4)cc3)cc2)CC1)(C(=O)NO)S(C)(=O)=O (stereo not drawn) [Example 74, N-hydroxy-2-methyl-2-(methylsulfonyl)-4-(4-(4′-(morpholinomethyl)-[1,1′-biphenyl]-4-yl)-3,6-dihydropyridin-1(2H)-yl)butanamide] | < 1 | < 1 | 1 to 8 (≈ 1.9 to 15.2 µM)
COCC#Cc1ccc(C2=CCN(CCC(C)(C(=O)NO)S(C)(=O)=O)CC2)cn1 (stereo not drawn) [Example 75, N-hydroxy-4-(6-(3-methoxyprop-1-yn-1-yl)-3′,6′-dihydro-[3,4′-bipyridin]-1′(2′H)-yl)-2-methyl-2-(methylsulfonyl)butanamide] | > 16 | > 16 | > 16
CC(CN1CC=C(c2ccc(-c3ccccc3)cc2)CC1)(C(=O)NO)S(C)(=O)=O (stereo not drawn) [Example 76, 3-(4-([1,1′-biphenyl]-4-yl)-3,6-dihydropyridin-1(2H)-yl)-N-hydroxy-2-methyl-2-(methylsulfonyl)propanamide] | > 16 | > 16 | > 16
